Reference: publication PMC7822874, “Chemoprotective antimalarials identified through quantitative high-throughput screening of Plasmodium blood and liver stage parasites” (Scientific Reports, 2021)
Values joined by “and” are separate entries in the source; they are usually repeats but may differ in a detail not shown here. Identical values can stand only once. Like-named read-outs stand apart in the source and are kept apart here.

Experiments:
[1] = in vitro; settings: human, hepg2-a16-cd81egfp cells
[2] = system: P. berghei-ANKA-GFP-LucCON liver stage parasites in HepG2-A16-CD81EGFP cells; assay: P. berghei liver stage Pb-Luc assay, Method 1 (UCSD, 1536-well); type: cell-based, Plasmodium berghei; settings: for activity at 1 µM / activity at 3 µM: 48 h, average of 2 wells, 1536-well plate; for activity at 1 µM: nominal 1 uM (10 mM stock), […] for 15 mM, 1.2 uM for 12 mM, 2 uM for 20 mM stock; for activity at 3 µM: nominal 3 uM (10 mM stock), 4.5 uM for 15 mM, 3.6 uM for 12 mM, 6 uM for 20 mM stock
[3] = in vitro; settings: human, HepG2-A16-CD81EGFP cells, uninfected
[4] = system: Plasmodium falciparum Dd2 asexual blood stage parasites; assay: microbe, parasite or virus in culture; set-up: species or system Plasmodium falciparum Dd2 in human erythrocytes; single determination (one 11-point concentration-response curve); settings: Plasmodium falciparum, DD2, Erythrocyte, 72 h; read-out: AC50
[5] = system: T1, Plasmodium falciparum Dd2-attB (parental line), asexual blood stages; assay: microbe, parasite or virus in culture; set-up: replicate k of 3 (each line is one of three independent assays; the three lines of one compound and parasite line follow each other); settings: 72 h; n = 1
T1 construct: Dd2-attB, the isogenic parental line
Summary of the method: (§1)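 Both lines were tested side by side with selected compounds, repeated in three independent assays. Differences between parental and ScDHODH-expressing parasites were then assessed with a two-sided Student's t-test.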

[6] = system: HepG2-A16-CD81EGFP cells; settings: average of 2 wells, repeat 2
[7] = system: T2, Plasmodium falciparum Dd2-attB-ScDHODH (transgenic line expressing yeast DHODH), asexual blood stages; assay: organism not typed; set-up: replicate k of 3 (each line is one of three independent assays; the three lines of one compound and parasite line follow each other); settings: 72 h, n = 1
T2 construct: Dd2-attB-ScDHODH, the transgenic line that expresses yeast DHODH
Summary of the method: as §1

Structure (SMILES) | viability at 3 µM ([1]; % viability) [%] | also measured
Oc1cccc(Nc2nc(NCC3CCCO3)c3ccccc3n2)c1 (stereo not shown) [MLS000026845] | 95.5 | –
Oc1ccc(CN2CCCCC2)nc1-c1ccccc1 [MLS000031925] | 99.7 | –
Cc1ccc(NC(=O)N(Cc2ccc3c(c2)OCO3)Cc2cc3cc4c(cc3[nH]c2=O)OCCO4)cc1 [MLS000033889] | 101 | –
CCOC(=O)c1c(CN(C)C)oc2cc(CN(C)C)c(O)c(CSc3ccccc3)c12 [MLS000038262] | 104 | –
CN(C)Cc1c(O)ccc2oc(Cc3ccccc3)cc12 [MLS000039159] | 89.6 | –
Cc1ccc(O)c(-c2cc(C(=O)Nc3ccc(S(=O)(=O)N4CC(C)OC(C)C4)cc3)n[nH]2)c1 (stereo not shown) [MLS000042695] | 87.1 | –
Cc1cc(O)c(-c2cc(C(=O)Nc3ccc(S(=O)(=O)N4CCOCC4)cc3)[nH]n2)cc1C [MLS000042703] | 93.1 | –
CC(C)(C)Nc1nc(NC(C)(C)C)nc(-n2ccnc2)n1 [MLS000044025] | 90.9 | –
COc1ccccc1CNC(=O)CCn1c(=O)[nH]c2ccsc2c1=O [MLS000044764] | 109 | –
COc1cc(C2NCc3ccccc3-n3cccc32)ccc1O (stereo not shown) [MLS000047988] | 102 | –
c1ccc(-c2cccc(-c3ccccn3)n2)nc1 [MLS000048666] | 19.2 | –
COc1cccc(OCCn2cc(C(=O)c3ccco3)c3ccccc32)c1 [MLS000050800] | – | viability at 3 µM [1]: 106%
Cc1ccc(CNCc2cc3c(C(C)(C)C)nn(-c4ccccc4)c3[nH]c2=O)cc1 [MLS000067257] | 106 | –
Cc1ccc(-c2nn(-c3ccccc3)c3[nH]c(=O)c(CNCc4ccccc4)cc23)cc1 [MLS000067457] | 95.4 | –
Cc1cc(C)n(-c2nc(NC(C)C)nc(NC(C)C)n2)n1 [MLS000068521] | 105 | –
CCCc1c(CC)c(=N)c2ccccc2n1C [MLS000080101] | 83.6 | –
O=C(Nc1cccnc1)c1cn(-c2ccccc2)nc1-c1cccs1 [MLS000081870] | 100 | –
C=C(C)COc1ccc(-c2n[nH]cc2-c2ccc(OC)c(OC)c2)c(O)c1 [MLS000084580] | 42.4 | –
COc1ccc(OC)c(-n2c(-c3cccc(O)c3)n[nH]c2=S)c1 [MLS000089016] | 93.1 | –
COc1ccc2cc3cc(C(=O)NCC4CCCO4)oc3nc2c1 (stereo not shown) [MLS000091914] | 106 | –

Structure (SMILES) | viability at 3 µM ([1]; % viability) [%] | also measured
CC(C)N1CC=C(c2c[nH]c3ccccc23)CC1 [MLS000093714] | 93.1 | –
Cc1ccc(-c2cc3c(nn2)-c2ccccc2C3=O)cc1 [MLS000104226] | 76.2 | –
N#Cc1ccc(NC(=O)Nc2ccc(Cl)cc2)cc1 [MLS000104525] | 77.8 | –
Oc1c(Cl)cc(Cl)cc1CN1CCN(Cc2ccccc2)CC1 [MLS000106505] | – | viability at 3 µM [1]: 92%
Oc1ccc(Br)cc1CN1CCN(c2ccccc2)CC1 [MLS000106609] | – | viability at 3 µM [1]: 99.8%
CCN(CC)CC(O)COc1ccccc1C(=O)CCc1ccccc1 (stereo not shown) [MLS000107538] | 104 | –
N#Cc1c2c(c(NCc3ccco3)n3c1nc1ccccc13)CCC2 [MLS000109113] | 97.7 | –
Cc1cc(C)n(-c2nc(NC(C)(C)C)nc(NC(C)(C)C)n2)n1 [MLS000109787] | 106 | –
CCCCOc1ccc(NC2=NC(N)=NC3(CCCCC3)N2)cc1 [MLS000109806] | 88.4 | –
Cc1cc(N2CCC(C)CC2)nc(-n2nc(C)cc2C)n1 [MLS000109839] | 98.6 | –
Cc1cc(Nc2ccc(C(C)C)cc2)n2ncnc2n1 [MLS000116597] | 96.1 | –
Cc1cc(Nc2ccc(Br)c(C)c2)n2nc(C)nc2n1 [MLS000116638] | 87.3 | –
N#Cc1cc(C#N)c(N2CCN(c3cccc(Cl)n3)CC2)nc1N [MLS000325470] | 99.6 | –
CCOc1ccc(-n2c(SCC(N)=O)nc3sc4c(c3c2=O)CCN(C)C4)cc1 [MLS000332254] | 95.7 | –
OC(CNC1CCCc2ccccc21)COc1c(Cl)cccc1Cl (stereo not shown) [MLS000334339] | 100 | –
c1ccc2sc(Sc3ncnc4sccc34)nc2c1 [MLS000334432] | 96.9 | –
Cc1ccc(Sc2ccc(NC(=O)CCl)cc2)cc1C [MLS000334846] | 93.9 | –
Clc1ccc2c(N/N=C/c3cccc(Br)c3)ccnc2c1 [MLS000336198] | 87.2 | –
CCOc1ccccc1NC(C)C(=O)Nc1cc(C(F)(F)F)ccc1N1CCOCC1 (stereo not shown) [MLS000336343] | 99.6 | –
CCN(CC)c1ccc(NC(=O)COc2ccccc2C#N)cc1S(=O)(=O)Nc1ccccc1OC [MLS000339599] | 97.1 | –

Structure (SMILES) | viability at 3 µM ([1]; % viability) [%] | also measured
O=C(NC1=C(Nc2ccc(F)cc2)C(=O)c2ccccc2C1=O)c1ccc(Cl)cc1 [MLS000375026] | 97 | –
O=C(NC1=C(Nc2ccc(Cl)cc2)C(=O)c2ccccc2C1=O)c1ccccc1 [MLS000375030] | 97.1 | –
CC1CCN(c2ccc(C(=O)NCc3ccco3)cc2[N+](=O)[O-])CC1 [MLS000389854] | 91.2 | –
COc1ccccc1CNCC(O)Cn1c2ccccc2c2ccccc21 (stereo not shown) [MLS000391556] | 92.6 | –
CCOc1ccc2c(c1)OC(c1ccc(C)cc1)(C(F)(F)F)NC2=O (stereo not shown) [MLS000392832] | 63.5 | –
CCOC(=O)c1sc2nc3c(SCCC#N)cc(C(=O)c4cc(F)ccc4O)cn3c(=O)c2c1C [MLS000393119] | 91.3 | –
Cc1nc2ccc(NC(=O)c3cc(S(=O)(=O)N(C)c4ccccc4)ccc3Cl)cc2s1 [MLS000393823] | 59.7 | –
O=C(c1cc(C(=O)NCCc2ccccc2)c(=O)n(CCc2ccccc2)c1)c1cc(Cl)ccc1O [MLS000402354] | 100 | –
CCOc1ccc(Nc2cc(=O)oc3ccccc23)cc1 [MLS000519261] | 103 | –
Cc1ccc(C(=O)N/N=C/c2ccc([N+](=O)[O-])s2)cc1 [MLS000519463] | 95.4 | –
OC(CNCC1CCCO1)Cn1c2ccc(Cl)cc2c2cc(Cl)ccc21 (stereo not shown) [MLS000525403] | 90.7 | –
CCOc1ccccc1NC(=O)Cn1c(-c2ccc(Cl)cc2)noc1=O [MLS000529487] | 86.9 | –
COc1ccc2[nH]c(C)c(CCN(Cc3cccs3)C(S)=Nc3ccccc3)c2c1 [MLS000529828] | 86.8 | –
CCCCCCCc1c(C)[nH]c(N2CCOCC2)nc1=O [MLS000531187] | 90.5 | –
Clc1ccc(NNc2ccnc3cc(Cl)ccc23)cc1 [MLS000537447] | 90.3 | –
O=C(CCl)Nc1cccc(-c2cnc3ccccc3n2)c1 [MLS000541295] | 88.6 | –
CN(C)c1nc(-c2ccccn2)nnc1-c1ccccc1 [MLS000541553] | 86.2 | –
CCCN1C(CC(C)C)=N[S+](=O)([O-])c2cc(NC(=O)c3cccs3)ccc21 [NCGC00473217-01] | – | Max Resp (signal direction of the dose response) ([2]; Method 1, Decrease = decreasing P. berghei viability with dose, Increase = increasing signal, Inactive = no dose response): Decrease; AC50 ([2]; Method 1, Hill fit, 50% of maximum activity response, read-out: AC50): 3.16 nM; Log AC50 (M) ([2]; Method 1, log10 of molar AC50 from Hill fit): -8.500 M; activity at 1 µM ([2]; Plasmodium berghei, repeat 1, read-out: Pb-Luc signal, 1 uM, repeat 1): 8.62%; activity at 1 µM ([2]; Plasmodium berghei, repeat 2, read-out: Pb-Luc signal, 1 uM, repeat 2): 7.89%; activity at 1 µM ([2]; Plasmodium berghei, repeat 3, read-out: Pb-Luc signal, 1 uM, repeat 3): 4.31%; activity at 3 µM ([2]; Plasmodium berghei, repeat 1, read-out: Pb-Luc signal, 3 uM, repeat 1): 2.42%; activity at 3 µM ([2]; Plasmodium berghei, repeat 2, read-out: Pb-Luc signal, 3 uM, repeat 2): 3.74%; activity at 3 µM ([2]; Plasmodium berghei, repeat 3, read-out: Pb-Luc signal, 3 uM, repeat 3): 3.33%; AC50 ([2]; Plasmodium berghei, Method 1, Hill fit, 50% of maximum activity response, read-out: AC50): 2.82 nM; AC50 ([2]; Plasmodium berghei, Method 1, log10 of molar AC50 from Hill fit, read-out: Log AC50 (converted)): 2.82 nM; viability at 48 h, 1 µM [3]: 105%; viability at 48 h, 3 µM [3]: 106%; AC50 [4]: 335 nM; Individual replicates / Log AC50 (M) [5]: -7.2986 Log AC50 (M) and -6.9486 Log AC50 (M) and -6.9986 Log AC50 (M); HepG2 viability signal, 1 uM, repeat 2 ([6]; nominal 1 uM (10 mM stock), […] for 15 mM, 1.2 uM for 12 mM, 2 uM for 20 mM stock): 104.11%; HepG2 viability signal, 3 uM, repeat 2 ([6]; nominal 3 uM (10 mM stock), 4.5 uM for 15 mM, 3.6 uM for 12 mM, 6 uM for 20 mM stock): 105.41%; Individual replicates / Log AC50 (M) [7]: -6.2986 Log AC50 (M); AC50 ([7]; read-out: Individual replicates / Log AC50 (converted)): 710 nM
